# Tests used:
# anesthetized rat = assay: Coronary artery ligation and release (myocardial reperfusion injury) in anesthetized rat; type: in vivo; set-up: dose or concentration left out as unconfirmed; details: 1-hour coronary ischemia, 1 hour reperfusion, i.v. 10 min prior to reperfusion
# [1] = tested on: streptozotocin diabetic mice; assay: Streptozotocin induced diabetes: vascular function, glucose, insulin, immunostaining; type: in vivo, mouse
# Method: Male Balb/c mice were treated intraperitoneally (i.p.) with streptozotocin (240 mg/kg dissolved in citrate buffer) or vehicle (citrate buffer). Blood glucose was then monitored weekly over 8 weeks using a one-touch blood glucose meter (Lifescan). Hyperglycemia was defined as non-fasting blood glucose level higher than 200 mg/dL. Total glycated hemoglobin (GHb) content of blood samples was measured using a commercially available kit (Sigma Diagnostics) according to manufacturers instructions. […] The optical density of the two fractions was measured by spectrophotometry at 415 nm and the per cent glycated hemoglobin content was calculated as follows: GHb (%)=[…]/(E+[…]). Samples of pancreas were removed on week 8 and weighed before being placed into 6 ml of acid ethanol (23:7:0.45, ethanol:dH2O:HCl) and homogenized. The pancreas was incubated for 72 h at 4° C. before being centrifuged. The insulin content of the supernatant was then determined using a commercially available ELISA kit (Alpco). […] At 8 weeks, blood was taken for measurement of glycosylated hemoglobin levels, pancreata taken for measurements of pancreatic insulin content, and thoracic aortae taken for determination of endothelium-dependent relaxant reactivity. There was no difference in the degree of hyperglycemia and glycosylated hemoglobin, and in the degree of pancreatic insulin loss between vehicle and PJ34 treated diabetic animals. […] Sections were treated with 0.3% hydrogen peroxide for 15 min to block endogenous peroxidase activity and then rinsed briefly in PBS. Non-specific binding was blocked by incubating the slides for 1 h in PBS containing 2% horse serum. To detect poly(ADP-ribose), a routine histochemical procedure was applied, as previously described (Scott et al., Ann. Neurol. 45: 120-124, 1999) with minor modifications, as follows: Mouse monoclonal anti-poly(ADP-ribose) antibody (Alexis, San Diego, Calif.) and isotype-matched control antibody were applied in a dilution of 1:100 for 2 h at room temperature. Following extensive washing (5×5 min) with PBS, immunoreactivity was detected with a biotinylated goat anti-rabbit secondary antibody and the avidin-biotin-peroxidase complex (ABC), both supplied in the Vector Elite kit (Vector Laboratories, Burlingame, Calif.). Color was developed using Ni-DAB substrate (95 mg diaminobenzidine, 1.6 g NaCl, 2 g nickel sulfate in 200 ml 0.1 M acetate buffer). Sections were then counterstained with nuclear fast red, dehydrated and mounted in Permount. Photomicrographs were taken with a Zeiss Axiolab microscope equipped with a Fuji HC-300C digital camera. Detection of nitrotyrosine in aorta rings was carried out as described above for poly(ADP-ribose) staining except that rabbit anti-nitrotyrosine polyclonal antibody was used as the primary antibody. […] Cells were rehydrated in PBS, blocked in 2% goat serum (1 h, room temperature) and incubated in anti-nitrotyrosine (1:100 dilution) for 2 h. Subsequent steps of the staining procedure were identical to the tissue staining. Color was developed with Vector Red substrate, and slides were mounted in glycerol.
# MIP-2 = assay: LPS-stimulated J774 macrophages: MIP-2 production; type: cell-based
# Excerpt: (§1) In in vitro studies, J774 macrophages were exposed to bacterial lipopolysaccharide (LPS), to induce pro-inflammatory mediator production and cytotoxicity. […] This assay (the LPS-stimulated macrophage) represents an in vitro model of an inflammatory situation. Agents that block inflammatory mediator production in this assay are expected to have anti-inflammatory or immunosuppressive effects in inflammatory or immune diseases.
# (§2) The half-maximal inhibitory effect (in μM) of various PJ compounds was assessed under a variety of conditions in immunostimulated J774 macrophages and in peroxynitrite-stimulated thymocytes. Macrophages or thymocytes were first treated with a chosen PJ compound for 30 min at a concentration ranging from 0.1 to 30 μM. The cells were then immunostimulated with LPS (10 μg/ml) or treated with peroxynitrite (30 μM). MIP production in the macrophages was measured at 3 h, TNF and nitric oxide were measured at 24 h, cell viability in the macrophages were measured at 24 h. PARS activation and cell death in thymocytes were measured at 6 h. Measurements of mediator production, PARS activation and cell death were essentially as described in Németh, et al., Eur J Pharmacol 339:215-221, 1997 and Virág and Szabó, Br J Pharmacol, 126: 769-777, 1999. Results in Table 2 are shown as EC50 values (half maximal inhibition of mediator production or restoration of cell viability; in μM): [mean±SEM of n=3-6 determinations].
# cultured neurons = details: oxygen/glucose deprivation; concentration range 10 nM-1 μM
# Excerpt: A second experimental system was used where oxygen/glucose deprivation induced cell death in cultured neurons (i.e. an in vitro model of stroke).
# J774 macrophages = assay: LPS-stimulated J774 macrophages: cell viability; type: cell-based
# Excerpt: as §1, §2
# Lewis rats = assay: Heterotopic heart transplantation: coronary blood flow and myocardial performance; type: in vivo, rat; details: 3 mg/kg i.v.
# rat = assay: Middle cerebral artery occlusion/reperfusion
# Method: Occlusion lasted for 2 hours, followed by reperfusion for 24 hours. Infarct size was quantified with tetrazolium staining, and survival and neurological scores were monitored.
# nitric oxide (nitrite) = assay: LPS-stimulated J774 macrophages: nitric oxide production measured as nitrite; type: cell-based
# Excerpt: as §1, §2
# [2] = 10 mg/kg per os once a day from week 1, at 8 weeks
# [3] = J774 macrophages exposed to LPS
smiles,measurement,setting,value
"CN(C)CC(=O)Nc1ccc2[nH]c(=O)c3ccccc3c2c1 [PJ34, N-(6-oxo-5,6-dihydro-phenanthridin-2-yl)-N,N-dimethylacetamide]",reduction of plasma levels of creatine phosphokinase (CPK),anesthetized rat,approx. 50%
same,"myocardial infarct size (area of necrosis, over area of risk)",anesthetized rat; 62±1 without treatment,50±3%
same,degree of hyperglycemia (blood glucose) vs vehicle,"[1]; 10 mg/kg per os once a day from week 1, 0-8 weeks",no difference
same,degree of pancreatic insulin loss vs vehicle,[1]; [2],no difference
same,glycosylated hemoglobin vs vehicle,[1]; [2],no difference
same,PARS activation (poly(ADP-ribose) staining) in diabetic endothelium,[1]; 8 weeks,abolished
same,tyrosine nitration (nitrotyrosine immunostaining) in diabetic rings,[1]; 8 weeks,not affected
same,vascular reactivity of normal (non-diabetic) mice,"[1]; chronic treatment 8 weeks, same regimen, not shown",did not affect
same,acetylcholine induced endothelium-dependent relaxant ability of thoracic aortic rings,"[1]; diabetic animals at 8 weeks, 10 mg/kg per os daily, P<0.01 vs vehicle",normalized
same,production of the chemokine MIP-2 (in words),MIP-2; [3],inhibited
same,EC50,"MIP-2; Mus musculus, J774, LPS 10 μg/ml, 30 min pretreatment 0.1 to 30 μM, measured at 3 h, mean±SEM n=3-6, read-out: Inhibition of MIP-2 (J774)",7.2 ± 0.88 µM
same,cytoprotection,cultured neurons,up to 70%
same,viability of the cells suppressed by LPS exposure (in words),J774 macrophages; [3],restored the viability
same,EC50,"J774 macrophages; Mus musculus, J774, LPS 10 μg/ml, 30 min pretreatment 0.1 to 30 μM, measured at 24 h, mean±SEM n=3-6, read-out: Enhancement of cell Viability (J774)",12.5 ± 1.4 µM
same,myocardial performance (in words),Lewis rats; data not shown,markedly enhanced
same,Basal coronary bloodflow,"Lewis rats; 1 h after transplant, vehicle 2.8 ± 0.3",4.1 ± 0.4 mL/min
same,Acetylcholine stimulated coronary bloodflow,"Lewis rats; 1 h after transplant, vehicle 3.5 ± 0.3",6.5 ± 0.5 mL/min
same,Basal coronary bloodflow,"Lewis rats; 24 h after transplant, vehicle 3.9 ± 0.3",4.2 ± 0.2 mL/min
same,Acetylcholine stimulated coronary bloodflow,"Lewis rats; 24 h after transplant, vehicle 6.1 ± 0.4",8.2 ± 0.8 mL/min
same,reduction of the size of brain infarction,rat; 10 mg/kg i.v. at 2 h after the start of reperfusion,55±8%
same,reduction of the size of brain infarction,rat; 10 mg/kg i.v. at the time of reperfusion (5 min before start),74±6%
same,mortality over 24 hours (in words),"rat; 2 hours occlusion, 24 hours reperfusion, 10 mg/kg i.v., 73% mortality in control or vehicle",no animals died
same,neurological deficit (scale of 1-4),"rat; 24 h, vehicle survivors scored 4",no detectable deficit
same,"production of nitric oxide, measured as nitrite (in words)",nitric oxide (nitrite); [3],inhibited
same,EC50,"nitric oxide (nitrite); Mus musculus, J774, LPS 10 μg/ml, 30 min pretreatment 0.1 to 30 μM, measured at 24 h, mean±SEM n=3-6, read-out: Inhibition of Nitrite (J774)",15.2 ± 2.8 µM
